Data: article PMC8741604 (Translational Oncology, 2022)
Blank lines part the entries; values can stand above or below the molecule they belong to. Where a SMILES comes first, the peptide text is derived from it.

Tests used:
[1] = system: CT26 murine colon carcinoma cells; assay: MTT cell viability without T cells; format: cell-based
[2] = system: CT26 murine colon carcinoma tumor in BALB/c mice; assay: Subcutaneous CT26 syngeneic tumor model, pre-treated with CT26 cell lysate; format: in vivo, mouse; conditions: PD-L1ip3 peptide only
[3] = molecular target: T1, human PD-L1 (Homo sapiens, UniProt Q9NZQ7); assay: Bio-layer interferometry binding to PD-L1; conditions: for Affinity for PD-L1 in words: bio-layer interferometry
[4] = system: CT26 murine colon carcinoma tumor in BALB/c mice; assay: Subcutaneous CT26 syngeneic tumor model, without pre-immunization; format: in vivo, mouse; conditions: PD-L1ip3 peptide alone, no pre-immunization, vs untreated CT26
[5] = molecular target: T1, human PD-L1; conditions: cited from earlier work

T1 sequence (Q9NZQ7 19-290): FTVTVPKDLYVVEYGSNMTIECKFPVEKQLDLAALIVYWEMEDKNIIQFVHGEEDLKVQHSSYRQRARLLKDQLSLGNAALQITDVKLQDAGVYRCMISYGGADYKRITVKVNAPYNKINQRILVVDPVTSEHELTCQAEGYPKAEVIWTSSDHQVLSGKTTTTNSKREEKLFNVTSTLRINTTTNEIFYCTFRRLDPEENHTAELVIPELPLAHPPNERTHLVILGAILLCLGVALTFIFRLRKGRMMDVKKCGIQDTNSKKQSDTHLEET

Affinity for PD-L1 relative to natural partner PD-1 ([3]; KD by BLI compared with literature PD-1 KD): only a few times weaker
Affinity for PD-L1 in words [3]: affinity in the micromolar range
Molecule: CC[C@H](C)[C@H](NC(=O)[C@H](CC(C)C)NC(=O)[C@@H]1CCCN1C(=O)[C@H](CCCCN)NC(=O)[C@H](CC(C)C)NC(=O)[C@H](CCCNC(=N)N)NC(=O)[C@@H](NC(=O)CN)[C@@H](C)O)C(=O)N[C@H](C(=O)N[C@@H](CS)C(=O)N[C@H](C(=O)N[C@@H](CCC(N)=O)C(=O)N[C@@H](Cc1c[nH]c2ccccc12)C(=O)N1CCC[C@H]1C(=O)NCC(=O)N[C@@H](CC(C)C)C(=O)O)C(C)C)[C@@H](C)CC [PD-L1ip3] (H-GTRLKPLIICVQWPGL-OH)
Cytotoxicity of the peptide (summary statement) ([1]; peptide alone, CT26 cells): negligible cytotoxicity
Tumor growth in words, peptide alone, pre-immunized [2]: minimal effect on tumor growth
Tumor growth in words, peptide alone [4]: neither transduction of a scrambled sequence peptide gene by the adenovirus vector (Ad-PD-L1ip3SC) nor PD-L1ip3 in peptide form alone showed a statistically significant change in tumor growth

Affinity for PD-L1 in words [3]: very weak binding
Molecule: VLIKIPWLRLPGCGTQ [PD-L1ip3SC]
CT26 cell viability at 72 h, 10 µg/ml ([1]; MTT, 10 µg/ml, 72 h, not significantly different from PBS): slight decrease of cell viability

B1: murine PD-1: murine PD-1, literature affinity for human PD-L1 (protein, UniProt Q02242 25-288, looked up)
Programmed cell death protein …: LEVPNGPWRSLTFYPAWLTVSEGANATFTCSLSNWSEDLMLNWNRLSPSNQTEKQAAFCNGLSQPVQDARFQIIQLPNRHDFHMNILDTRRNDSGIYLCGAISLHPKAKIEESPGAELVVTERILETSTRYPSPSPKPEGRFQGMVIGIMSALVGIPVLLLLAWALAVFCSTSMSEARGAGSKDDTLKEEPSAAPVPSVAYEELDFQGREKTPELPTACVHTEYATIVFTEGLGASAMGRRGSADGLQGPRPPRHEDGHCSWPL
Affinity of murine PD-1 for human PD-L1 versus human PD-1 [5]: shows similarity to that of human PD-1 for human PD-L1
